Data as given in a melting point compilation (Tetko et al.).

Structure (SMILES) | melting point
O=C(O)c1ccc(Cl)[nH]c1=O | 224 to 226 °C
Cn1cc(C=O)c(-c2ccccc2)n1 | 59 to 61 °C
O=C(c1ccccc1)c1nccs1 | 40 to 42 °C
CNc1ncccc1C(N)=O | 181 to 183 °C
CS(=O)(=O)c1ccccc1-n1cc(C(=O)O)cn1 | 225 to 227 °C
NNC(=O)Cc1cccnc1 | 99 to 101 °C
O=C(O)c1c[nH]nc1-c1ccccc1Cl | 255 to 257 °C
CC(C(=O)O)c1cccnc1 (configuration not stated) | 85 to 87 °C
CN1CCC(O)(Cc2ccccc2Cl)CC1 | 73 to 75 °C
Cc1cn2c(n1)CCC(N)C2 (configuration not stated) | 49 to 51 °C
Cc1ccc(Cl)c(N)c1C(=O)O | 119 to 121 °C
CS(=O)(=O)C1CCCCC1=O (configuration not stated) | 69 to 71 °C
Brc1nnc(Br)s1 | 104 to 106 °C
Cc1cccn2cc(COc3ccc(C=O)cc3)nc12 | 122 to 124 °C
Cn1ncc2c(Cl)nc(Cl)nc21 | 86 to 88 °C
Nc1ccc(-c2csc(N)n2)cc1 | 178 to 180 °C
O=C(NC=C(Cl)Cl)c1ccc(Br)cc1 | 110 to 112 °C
Cc1nc(-c2ccc(Cl)cc2)sc1C(C)N (configuration not stated) | 42 to 44 °C
C/C(N)=C\C#N | 4 to 6 °C
O=c1[nH]c(CN2CCNCC2)nc2ccccc12 | 167 to 169 °C
COc1ccc(N)cc1-n1cnnn1 | 139 to 141 °C
O=C(O)c1cc(-c2ccncc2)nc2ccc(Br)cc12 | 340 to 342 °C
Cc1n[nH]c(C(N)=O)n1 | 222 to 224 °C

Structure (SMILES) | melting point
CCOc1ccccc1-n1nnnc1SCC(=O)O | 145 to 147 °C
CCN(CC)c1ccnc(NN)n1 | 84 to 86 °C
COc1cc2c(cc1C(=O)CCl)C(=O)CO2 | 176 to 178 °C
CC(=O)c1c(Cl)nc2ccccn12 | 116 to 118 °C
COc1ccc(C(=O)C(Cl)c2ccc(OC)cc2)cc1 (configuration not stated) | 69 to 71 °C
Cn1cc(C(=O)O)cn1 | 203 to 205 °C
Cc1nccc(N)c1Cl | 110 to 112 °C
Cc1ccc(-c2cnc(-c3ccccc3C(=O)O)o2)cc1 | 219 to 221 °C
Cc1nc2nc(S)nn2c(C)c1CC(=O)O | 226 to 228 °C
O=C(CCl)Nc1ccncc1 | 295 to 297 °C
Cc1ccccc1SC(C(=O)O)c1ccccc1 (configuration not stated) | 100 to 102 °C
c1ccc(CNc2nccs2)cc1 | 127 to 129 °C
CC(C)(C)c1ccc(C(=O)O)s1 | 119 to 121 °C
COC(=O)c1ccc(C(=O)O)s1 | 194 to 196 °C
Cc1nnc(NC(=O)CCl)s1 | 230 to 232 °C
COc1ccc(C(N)Cc2ccc(F)cc2)cc1 (configuration not stated) | 47 to 49 °C
COc1cc2c(cc1OC)C(c1ccccc1)N(C(=O)CCl)CC2 (configuration not stated) | 218 to 222 °C
O=C(O)c1cccc(Oc2ccc(Cl)c(Cl)c2)n1 | 138 to 140 °C
CC(=O)c1c(C)nn(-c2ccccc2)c1C | 60 to 62 °C
COc1ccccc1NC(=O)c1ccc(NC(=O)CCCl)cc1 | 193 to 195 °C
CCc1ccc(-c2cnnc(N)n2)cc1 | 248 to 250 °C
Clc1ccc(NCCc2ccccc2)nn1 | 159 to 161 °C
CN1CC(=O)Nc2cnccc21 | 274 to 276 °C

Continued, values first:

melting point | Structure (SMILES)
122 to 124 °C | CC(=O)c1cccc(S(=O)(=O)N2CCC(C(=O)O)CC2)c1
173 to 175 °C | CC(=O)N1Cc2ccccc2CC1C(=O)O (configuration not stated)
160 to 162 °C | O=C(O)C1CC1c1ccc2c(c1)OCCO2 (configuration not stated)
47 to 49 °C | Cc1nc2c(F)cccc2c(Cl)c1C(C)C
82 to 84 °C | COc1c(F)ccc(F)c1C(=O)O
199 to 201 °C | O=C(O)c1ccc(S(=O)(=O)Cl)c(Cl)c1
97 to 99 °C | CCc1[nH]nc(N)c1-c1ccc2c(c1)OCO2
68 to 70 °C | O=[N+]([O-])c1ccc(NCC2CCCO2)c(F)c1 (configuration not stated)
185 to 187 °C | Cc1c[nH]c(=O)n1-c1ccc(Cl)cc1
97 to 99 °C | O=CCN1C(=O)COc2ccccc21
191 to 193 °C | O=C(O)c1ccc(OCc2cscn2)cc1
209 to 211 °C | CCOc1ccccc1-c1csc(N)n1
217 to 219 °C | Nc1ccc2c(c1)OCC(=O)N2
151 to 153 °C | CC1(c2ccsc2)NC(=O)NC1=O (configuration not stated)
269 to 271 °C | O=c1[nH]c2ccc(C(F)(F)F)cc2c(=O)o1
134 to 136 °C | N#Cc1cccc(N2C(=O)CCC2=O)c1
196 to 198 °C | CC(C)(c1ccccc1)c1nnc(N)o1
229 to 231 °C | COC(=O)Nc1cccc(C(=O)O)c1
197 to 199 °C | COC(=O)c1nc2ncc3c(n2n1)C(=O)OCC3

melting point | Structure (SMILES)
107 to 109 °C | COc1ccc(S(=O)(=O)N2CCN(C)CC2)cc1N
128 to 130 °C | CCN(c1ccccc1)S(=O)(=O)c1ccc(Cl)c(C(=O)O)c1
248 to 250 °C | Cc1[nH]c2ccc(Cl)cc2c1C=O
206 to 208 °C | Nc1ccc(S(N)(=O)=O)cc1[N+](=O)[O-]
259 to 261 °C | CC1CCc2c(sc3nc(CCC(=O)O)[nH]c(=O)c23)C1 (configuration not stated)
218 to 220 °C | Cc1nc2ccc(Cl)cc2cc1C(=O)O
87 to 89 °C | ClCc1nnc(-c2ccc(Cl)cc2Cl)o1
81 to 83 °C | CCOC(=O)c1sc(-c2ccc(F)c(F)c2)nc1C
193 to 195 °C | O=C(O)c1cccc(N2CC=CC2)c1
140 to 142 °C | CC(C)(C)OC(=O)Nc1ccc(C(F)(F)F)cc1N
216 to 218 °C | COc1ccc(C(=O)O)cc1S(=O)(=O)NC1CCCC1
185 to 187 °C | O=C(O)c1cc2cc(F)ccc2oc1=O
235 to 237 °C | O=C1NC(=O)C(Cc2c[nH]c3ccccc23)N1 (configuration not stated)
65 to 74 °C | CN(C(=O)c1ccccc1O)C1CCCC1
92 to 94 °C | CC(Cl)C(=O)Nc1ccccc1C(F)(F)F (configuration not stated)
64 to 66 °C | O=[N+]([O-])c1ccccc1CS(=O)(=O)Cl
115 to 124 °C | Nc1ccccc1C(=O)NCc1ccc2c(c1)OCO2
74 to 76 °C | COc1ccc(-c2nc(CO)cs2)cc1
107 to 109 °C | COC(=O)CNc1ncc(C)cc1[N+](=O)[O-]

melting point | Structure (SMILES)
119 to 121 °C | CS(=O)(=O)Nc1cccc(I)c1
106 to 108 °C | O=C1C=CC(=O)N1CCc1ccccc1F
178 to 180 °C | Cc1ccc(S(=O)(=O)NCc2ccco2)cc1C(=O)O
46 to 48 °C | COc1ccc(CCCC(=O)O)c(OC)c1
63 to 65 °C | O=C1C=C(c2ccccc2)CCC1
80 to 82 °C | CN1CCCN(C(=O)c2ccccc2N)CC1
126 to 128 °C | COc1cc(N)ccc1N1CCCC1=O
88 to 90 °C | Cc1cc(N2CCCC(N)C2=O)n(C)n1 (configuration not stated)
185 to 187 °C | O=C(O)c1cccc(N2NC(=O)C3CC=CCC3C2=O)c1 (configuration not stated)
183 to 185 °C | O=Cc1cnc(-c2ccc(Cl)cc2)nc1
161 to 163 °C | Nc1c(F)ccc(Cl)c1C(=O)O
105 to 107 °C | Nc1ncc(Cc2ccc(F)c(F)c2F)s1
70 to 72 °C | N#Cc1ccc(S(=O)(=O)Cl)c(C(F)(F)F)c1
156 to 158 °C | O=C(Nc1ccc(Cl)cn1)C1CCCNC1 (configuration not stated)
169 to 171 °C | COc1ccc(OC)c(NC(=O)CCl)c1
122 to 124 °C | O=C(O)CS(=O)(=O)c1ccc(Cl)cc1
94 to 96 °C | CC1CN(c2ccccc2C=O)CC(C)O1 (configuration not stated)
173 to 175 °C | Cc1nnc(-c2cccc(C#N)c2)[nH]1
